Reference: PubChem BioAssay (NCI)
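All cell lines were grown in 96-well plates and treated with compound for 48 hours. TGI: concentration producing complete growth inhibition.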

Key:
Assay in all cases: NCI tumour cell line growth inhibition, 48 h
SF-295 CNS = tested on: SF-295 CNS
SK-OV-3 ovarian = tested on: SK-OV-3 ovarian
MCF7 breast = tested on: MCF7 breast
OVCAR-5 ovarian = tested on: OVCAR-5 ovarian
SK-MEL-28 melanoma = tested on: SK-MEL-28 melanoma
HCC-2998 colon = tested on: HCC-2998 colon
UO-31 renal = tested on: UO-31 renal
SNB-75 CNS = tested on: SNB-75 CNS
UACC-257 melanoma = tested on: UACC-257 melanoma
786-0 renal = tested on: 786-0 renal
HOP-62 NSCLC = tested on: HOP-62 NSCLC
MDA-MB-231 breast = tested on: MDA-MB-231 breast
NCI-H226 lung = tested on: NCI-H226 lung
OVCAR-4 ovarian = tested on: OVCAR-4 ovarian
OVCAR-3 ovarian = tested on: OVCAR-3 ovarian
HCT-116 colon = tested on: HCT-116 colon
CCRF-CEM leukemia = tested on: CCRF-CEM leukemia
OVCAR-8 ovarian = tested on: OVCAR-8 ovarian
NCI-H23 lung = tested on: NCI-H23 lung
A498 renal = tested on: A498 renal
A549 NSCLC = tested on: A549 NSCLC
BT-549 breast = tested on: BT-549 breast
MDA-MB-435 = tested on: MDA-MB-435
SW-620 colon = tested on: SW-620 colon
CAKI-1 renal = tested on: CAKI-1 renal
SR leukemia = tested on: SR leukemia
KM12 colon = tested on: KM12 colon
SK-MEL-2 melanoma = tested on: SK-MEL-2 melanoma
HS 578T breast = tested on: HS 578T breast
K-562 leukemia = tested on: K-562 leukemia
ACHN renal = tested on: ACHN renal
T-47D breast = tested on: T-47D breast
HOP-92 NSCLC = tested on: HOP-92 NSCLC
LOX IMVI melanoma = tested on: LOX IMVI melanoma
SF-268 CNS = tested on: SF-268 CNS
UACC-62 melanoma = tested on: UACC-62 melanoma
SNB-19 CNS = tested on: SNB-19 CNS
EKVX NSCLC = tested on: EKVX NSCLC
HL-60(TB) leukemia = tested on: HL-60(TB) leukemia
NCI-H460 lung = tested on: NCI-H460 lung
DU-145 prostate = tested on: DU-145 prostate
PC-3 prostate = tested on: PC-3 prostate
MOLT-4 leukemia = tested on: MOLT-4 leukemia
MDA-N = tested on: MDA-N
HT29 colon = tested on: HT29 colon
COLO 205 colon = tested on: COLO 205 colon
RPMI-8226 leukemia = tested on: RPMI-8226 leukemia
NCI/ADR-RES ovarian = tested on: NCI/ADR-RES ovarian
SN12C renal = tested on: SN12C renal
SK-MEL-5 melanoma = tested on: SK-MEL-5 melanoma
NCI-H522 lung = tested on: NCI-H522 lung
SF-539 CNS = tested on: SF-539 CNS
M14 melanoma = tested on: M14 melanoma
TK-10 renal = tested on: TK-10 renal
HCT-15 colon = tested on: HCT-15 colon
IGROV1 ovarian = tested on: IGROV1 ovarian
U251 CNS = tested on: U251 CNS
MALME-3M melanoma = tested on: MALME-3M melanoma
RXF 393 renal = tested on: RXF 393 renal

Compound `COc1cc([C@H]2c3cc(O)c(OC)cc3C[C@]3(O)[C@@H]2CO[C@@H]3O)ccc1O` has a TGI (SF-295 CNS) of over 100 µM, a TGI (SK-OV-3 ovarian) of over 100 µM and a TGI (MCF7 breast) of over 100 µM. It also gave a TGI (OVCAR-5 ovarian) of over 100 µM, a TGI (SK-MEL-28 melanoma) of over 100 µM and a TGI (HCC-2998 colon) of over 100 µM. The TGI (UO-31 renal) was over 100 µM, the TGI (SNB-75 CNS) was over 100 µM and the TGI (UACC-257 melanoma) was over 100 µM. The TGI (786-0 renal) was over 100 µM, the TGI (HOP-62 NSCLC) was over 100 µM and the TGI (MDA-MB-231 breast) was over 100 µM. For the same compound, the TGI (NCI-H226 lung) was over 100 µM, the TGI (OVCAR-4 ovarian) was over 100 µM and the TGI (OVCAR-3 ovarian) was over 100 µM. For the same compound, the TGI (HCT-116 colon) was over 100 µM, the TGI (CCRF-CEM leukemia) was over 100 µM and the TGI (OVCAR-8 ovarian) was over 100 µM. The TGI (NCI-H23 lung) was over 100 µM, the TGI (A498 renal) was over 100 µM and the TGI (A549 NSCLC) was over 100 µM. For the same compound, the TGI (BT-549 breast) was over 100 µM, the TGI (MDA-MB-435) was over 100 µM and the TGI (SW-620 colon) was over 100 µM. The TGI (CAKI-1 renal) was over 100 µM, the TGI (SR leukemia) was over 100 µM and the TGI (KM12 colon) was over 100 µM. For the same compound, the TGI (SK-MEL-2 melanoma) was over 100 µM, the TGI (HS 578T breast) was over 100 µM and the TGI (K-562 leukemia) was over 100 µM. The TGI (ACHN renal) was over 100 µM, the TGI (T-47D breast) was over 100 µM and the TGI (HOP-92 NSCLC) was over 100 µM. The TGI (LOX IMVI melanoma) was over 100 µM, the TGI (SF-268 CNS) was over 100 µM and the TGI (UACC-62 melanoma) was over 100 µM. The TGI (SNB-19 CNS) was over 100 µM, the TGI (EKVX NSCLC) was over 100 µM and the TGI (HL-60(TB) leukemia) was over 100 µM. It also gave a TGI (NCI-H460 lung) of over 100 µM, a TGI (DU-145 prostate) of over 100 µM and a TGI (PC-3 prostate) of over 100 µM. The TGI (MOLT-4 leukemia) was over 100 µM, the TGI (MDA-N) was over 100 µM and the TGI (HT29 colon) was over 100 µM. It also gave a TGI (COLO 205 colon) of over 100 µM, a TGI (RPMI-8226 leukemia) of over 100 µM and a TGI (NCI/ADR-RES ovarian) of over 100 µM. It also gave a TGI (SN12C renal) of over 100 µM, a TGI (SK-MEL-5 melanoma) of over 100 µM and a TGI (NCI-H522 lung) of over 100 µM. For the same compound, the TGI (SF-539 CNS) was over 100 µM, the TGI (M14 melanoma) was over 100 µM and the TGI (TK-10 renal) was over 100 µM. It also gave a TGI (HCT-15 colon) of over 100 µM, a TGI (IGROV1 ovarian) of over 100 µM and a TGI (U251 CNS) of over 100 µM.
Work on `COc1ccc(/[N+]([O-])=C/c2ccccc2OC(=S)S)cc1` yielded a TGI (SF-295 CNS) of over 100 µM, a TGI (SK-OV-3 ovarian) of over 100 µM and a TGI (MCF7 breast) of over 100 µM. It also gave a TGI (OVCAR-5 ovarian) of over 100 µM, a TGI (SK-MEL-28 melanoma) of over 100 µM and a TGI (HCC-2998 colon) of over 100 µM. For the same compound, the TGI (UO-31 renal) was over 100 µM, the TGI (SNB-75 CNS) was over 100 µM and the TGI (UACC-257 melanoma) was 97.1 µM. The TGI (786-0 renal) was 65.5 µM, the TGI (MDA-MB-231 breast) was over 100 µM and the TGI (NCI-H226 lung) was over 100 µM. For the same compound, the TGI (OVCAR-4 ovarian) was over 100 µM, the TGI (OVCAR-3 ovarian) was over 100 µM and the TGI (HCT-116 colon) was 73.5 µM. The TGI (OVCAR-8 ovarian) was 45 µM, the TGI (NCI-H23 lung) was 85.5 µM and the TGI (A498 renal) was over 100 µM. For the same compound, the TGI (MALME-3M melanoma) was over 100 µM, the TGI (A549 NSCLC) was over 100 µM and the TGI (BT-549 breast) was 66.6 µM. The TGI (MDA-MB-435) was 55.7 µM, the TGI (SW-620 colon) was over 100 µM and the TGI (CAKI-1 renal) was over 100 µM. For the same compound, the TGI (SR leukemia) was over 100 µM, the TGI (KM12 colon) was over 100 µM and the TGI (SK-MEL-2 melanoma) was 65.7 µM. The TGI (HS 578T breast) was over 100 µM, the TGI (K-562 leukemia) was over 100 µM and the TGI (ACHN renal) was over 100 µM. It also gave a TGI (T-47D breast) of over 100 µM, a TGI (HOP-92 NSCLC) of 64.4 µM and a TGI (LOX IMVI melanoma) of 52.7 µM. It also gave a TGI (SF-268 CNS) of over 100 µM, a TGI (UACC-62 melanoma) of over 100 µM and a TGI (SNB-19 CNS) of over 100 µM. It also gave a TGI (EKVX NSCLC) of over 100 µM, a TGI (HL-60(TB) leukemia) of 70.8 µM and a TGI (NCI-H460 lung) of over 100 µM. The TGI (DU-145 prostate) was over 100 µM, the TGI (PC-3 prostate) was over 100 µM and the TGI (MOLT-4 leukemia) was over 100 µM. It also gave a TGI (MDA-N) of 63.4 µM, a TGI (HT29 colon) of 49.7 µM and a TGI (COLO 205 colon) of over 100 µM. It also gave a TGI (RXF 393 renal) of over 100 µM, a TGI (RPMI-8226 leukemia) of 61 µM and a TGI (NCI/ADR-RES ovarian) of 94.9 µM. It also gave a TGI (SN12C renal) of 56.9 µM, a TGI (SK-MEL-5 melanoma) of over 100 µM and a TGI (NCI-H522 lung) of 74 µM. The TGI (SF-539 CNS) was 52 µM, the TGI (M14 melanoma) was 91.5 µM and the TGI (TK-10 renal) was over 100 µM. For the same compound, the TGI (HCT-15 colon) was over 100 µM, the TGI (IGROV1 ovarian) was over 100 µM and the TGI (U251 CNS) was over 100 µM.
Work on `CO/C(N)=C(\C#N)N=Cc1cccs1` yielded a TGI (SF-295 CNS) of over 100 µM, a TGI (SK-OV-3 ovarian) of over 100 µM and a TGI (MCF7 breast) of over 100 µM. The TGI (OVCAR-5 ovarian) was over 100 µM, the TGI (SK-MEL-28 melanoma) was over 100 µM and the TGI (HCC-2998 colon) was over 100 µM. For the same compound, the TGI (UO-31 renal) was over 100 µM, the TGI (SNB-75 CNS) was over 100 µM and the TGI (UACC-257 melanoma) was over 100 µM. For the same compound, the TGI (786-0 renal) was over 100 µM, the TGI (HOP-62 NSCLC) was over 100 µM and the TGI (MDA-MB-231 breast) was over 100 µM. It also gave a TGI (NCI-H226 lung) of over 100 µM, a TGI (OVCAR-4 ovarian) of over 100 µM and a TGI (OVCAR-3 ovarian) of over 100 µM. The TGI (HCT-116 colon) was over 100 µM, the TGI (CCRF-CEM leukemia) was over 100 µM and the TGI (OVCAR-8 ovarian) was over 100 µM. For the same compound, the TGI (NCI-H23 lung) was over 100 µM, the TGI (A498 renal) was over 100 µM and the TGI (MALME-3M melanoma) was over 100 µM. It also gave a TGI (A549 NSCLC) of over 100 µM, a TGI (BT-549 breast) of over 100 µM and a TGI (MDA-MB-435) of 73.3 µM. The TGI (SW-620 colon) was over 100 µM, the TGI (CAKI-1 renal) was over 100 µM and the TGI (KM12 colon) was over 100 µM. For the same compound, the TGI (SK-MEL-2 melanoma) was over 100 µM, the TGI (HS 578T breast) was over 100 µM and the TGI (K-562 leukemia) was over 100 µM. It also gave a TGI (ACHN renal) of over 100 µM, a TGI (T-47D breast) of over 100 µM and a TGI (HOP-92 NSCLC) of over 100 µM. For the same compound, the TGI (LOX IMVI melanoma) was over 100 µM, the TGI (SF-268 CNS) was over 100 µM and the TGI (UACC-62 melanoma) was over 100 µM. It also gave a TGI (SNB-19 CNS) of over 100 µM, a TGI (EKVX NSCLC) of over 100 µM and a TGI (HL-60(TB) leukemia) of 65.4 µM. The TGI (NCI-H460 lung) was over 100 µM, the TGI (DU-145 prostate) was over 100 µM and the TGI (PC-3 prostate) was over 100 µM. It also gave a TGI (MOLT-4 leukemia) of over 100 µM, a TGI (MDA-N) of 90.1 µM and a TGI (HT29 colon) of over 100 µM. The TGI (COLO 205 colon) was over 100 µM, the TGI (RXF 393 renal) was over 100 µM and the TGI (NCI/ADR-RES ovarian) was over 100 µM. The TGI (SN12C renal) was over 100 µM, the TGI (SK-MEL-5 melanoma) was over 100 µM and the TGI (NCI-H522 lung) was 79.6 µM. For the same compound, the TGI (SF-539 CNS) was over 100 µM, the TGI (M14 melanoma) was over 100 µM and the TGI (TK-10 renal) was over 100 µM. For the same compound, the TGI (HCT-15 colon) was over 100 µM, the TGI (IGROV1 ovarian) was over 100 µM and the TGI (U251 CNS) was over 100 µM.
